Experimental data as given in patent publication US11498933B2, “Prodrug compositions” (The University of Liverpool, priority 2017, dated 2022).

Legend:
[1] = Half-life of emtricitabine amidine prodrug in phosphate buffer; format: physicochemical; settings: Phosphate Buffer (100 mM, pH 7.4), 37° C.
Protocol: (§1) To evaluate the hydrolysis rates of emtricitabine amidine prodrugs, HPLC coupled with UV detection was used with the following method (0% to 100% acetonitrile in Et3NHOAc (50 mM, pH 8) gradient) over 10 minutes at a flow rate of 3 mL min^−1, held at 100% acetonitrile for 3 minutes, ramped down to 5% acetonitrile over 0.2 minutes and then held for 2.8 minutes. Normal human serum (Bioreclamation) or phosphate buffer (100 mM, pH 7.4) was pre-incubated at 37° C. for 5 minutes. Emtricitabine amidine compound 23 (1 mM) was then added and the reaction mixture was incubated at 37° C. […] The supernatant was injected onto a HPLC system for analysis, the resulting data can be seen illustrated in FIG. 13.

[2] = Half-life of emtricitabine amidine prodrug in human serum; format: in vitro ADME; settings: normal human serum, 37° C.
Protocol: as §1

[3] = Prodrug hydrolysis in mouse liver S9; format: in vitro ADME; settings: 1 mM, compared with human liver S9
Protocol: (§2) Reaction mixtures containing either mouse liver S9 (20.8 mg/mL), mouse plasma, rat liver S9 (1 mg/mL) and phosphate buffer (100 mM, pH 7.4), rat plasma, human liver S9 (1.0 mg/mL) and phosphate buffer (100 mM, pH 7.4) or human plasma were pre-incubated at 37° C. for 5 minutes. Reactions were then initiated by addition of compounds 4, 8 or 16 (1 mM in mouse, 0.5 mM in rat and human). After incubation at 37° C., aliquots are taken at each time point and quenched in two volumes of ice-cold methanol. The quenched aliquots were then centrifuged at 14000 rpm for 5 minutes. The supernatant was then diluted into phosphate buffer (30 mM, pH 7.4) to yield samples with concentrations suitable for analysis.

[4] = Prodrug hydrolysis in mouse plasma; format: in vitro ADME; settings: 1 mM, compared with human plasma
Protocol: as §2

[5] = system: CD4+ T cells; assay: Viability staining (Zombie Red) in single-round infectivity assay
Protocol: Peripheral blood mononuclear cells were isolated from healthy blood donors using Hypaque-Ficoll gradient centrifugation. CD4+ T cells were selected by magnetic beads (Miltenyi) and activated using anti-CD3 and anti-CD28 antibodies. Activated cells were seeded onto a 96-well plate at a concentration of 1×10^5 cells/well in RPMI1640 supplemented with 10% FBS, cytokine-rich supernatant, and 50% heat-inactivated human serum. Test compounds were added at this step and maintained throughout the culture. Cells were incubated at 37° C. for 21 hours. Pseudotype (GFP-tagged) HIV was then added to the culture via spinoculation and incubated for 3 days. Cells were then washed and stained with Zombie Red viability stain. Infectivity was quantified using flow cytometry.

[6] = Stability in single-round infectivity assay well media; format: in vitro ADME; settings: RPMI1640, 10% FBS, 50% heat-inactivated human serum, 37° C.
Protocol: Well media used in the single-round infectivity assays as described above, comprised of RPMI1640 medium supplemented with 10% FBS, cytokine-rich supernatant, 50% heat-inactivated human serum and HEPES buffer (12 mM). The emtricitabine test compounds were incubated in well media at 37° C. At various time points, aliquots were quenched in two volumes of ice-cold methanol. Quenched mixtures were then centrifuged at 14000 rpm for 5 minutes. The supernatant was diluted 10-fold into Tris buffer (30 mM, pH 7.4) and then analyzed via HPLC coupled with UV detection.
Stability studies indicate that both compounds 16 and 25 were hydrolyzed to the parent emtricitabine in a time-frame matching the time of pre-incubation in single-round infectivity assays. This is likely due to the presence of heat-inactivated serum still containing active esterases.

[7] = Kinetic analysis via UV in mixed pooled gender liver S9 (10.0 mg/mL); format: in vitro ADME, human
Protocol: Reaction mixtures containing Tris buffer (30 mM, pH 7.4) and mixed pooled gender liver S9 (10.0 mg/mL) were pre-incubated at 37° C. for 5 min. […] After incubation at 37° C., aliquots were taken at each time point and quenched in two volumes of ice-cold methanol. The quenched aliquots were then centrifuged at 14000 rpm for 5 minutes. The supernatant was diluted into Tris buffer (30 mM, pH 7.4) to yield concentrations appropriate for analysis and read spectrophotometrically monitoring a decrease in substrate at 305 nm.
A reaction mixture containing Tris buffer (30 mM, pH 7.4) and mixed pooled gender liver S9 (10.0 mg/mL) was pre-incubated at 37° C. for 5 minutes. The reaction was then initiated by the addition of emtricitabine trimethyl lock compound 25 (concentration of compound 25 ranging from 100 μM to 8 mM). After incubation at 37° C., aliquots were taken at each time point and quenched in two volumes of ice-cold methanol. The quenched aliquots were then centrifuged at 14000 rpm for 5 minutes. The supernatant was diluted into Tris buffer (30 mM, pH 7.4) to yield samples having concentrations appropriate for analysis and read spectrophotometrically monitoring a decrease in substrate at 312 nm.

[8] = Half-life measurements in human plasma (HPLC-UV); format: in vitro ADME; settings: Human plasma, 37° C., read-out: Half-Life (converted)
Protocol: (§3) To evaluate the hydrolysis rates of emtricitabine compounds 9-16, HPLC coupled with UV detection was used with the following method (0% to 100% acetonitrile in Et3NHOAc (50 mM, pH 8) gradient) over 10 minutes at a flow rate of 3 mL min^−1, held at 100% acetonitrile for 3 minutes, ramped down to 5% acetonitrile over 0.2 minutes and then held for 2.8 minutes. Male human plasma (Bioreclamation) or female human skeletal muscle S9 (7.96 mg/mL, Bioreclamation) was pre-incubated at 37° C. for 5 minutes. Compounds 9-16 (1 mM) were added and the reaction was incubated at 37° C. […] The supernatant was diluted 10 fold into Tris buffer (30 mM, pH 7.4) and injected onto the HPLC for analysis.
To evaluate the hydrolysis rates of emtricitabine trimethyl lock prodrugs, HPLC coupled with UV detection was used with the following method (0% to 100% acetonitrile in Et3NHOAc (50 mM, pH 8) gradient) over 10 minutes at a flow rate of 3 mL min^−1, held at 100% acetonitrile for 3 minutes, ramped down to 5% acetonitrile over 0.2 minutes and then held for 2.8 minutes. Human plasma (Bioreclamation) or human skeletal muscle S9 (7.96 mg/mL, Bioreclamation) was pre-incubated at 37° C. for 5 minutes. Emtricitabine trimethyl lock compound 25 (1 mM) was added and the reaction was incubated at 37° C. […] The supernatant was diluted in Tris buffer (100 mM, pH 7.4) and injected onto the HPLC for analysis. […]

[9] = Half-life measurements in human skeletal muscle S9; format: in vitro ADME; settings: Human muscle S9 (7.96 mg/mL), 37° C.
Protocol: as §3
To evaluate the hydrolysis rates of emtricitabine trimethyl lock prodrugs, HPLC coupled with UV detection was used with the following method (0% to 100% acetonitrile in Et3NHOAc (50 mM, pH 8) gradient) over 10 minutes at a flow rate of 3 mL min^−1, held at 100% acetonitrile for 3 minutes, ramped down to 5% acetonitrile over 0.2 minutes and then held for 2.8 minutes. Human plasma (Bioreclamation) or human skeletal muscle S9 (7.96 mg/mL, Bioreclamation) was pre-incubated at 37° C. for 5 minutes. Emtricitabine trimethyl lock compound 25 (1 mM) was added and the reaction was incubated at 37° C. […] The supernatant was diluted in Tris buffer (100 mM, pH 7.4) and injected onto the HPLC for analysis.

[10] = Kinetic analysis of trimethyl lock prodrug in mouse liver S9 via UV; format: in vitro ADME; settings: mouse liver S9 1.0 mg/mL
Protocol: The reaction is then initiated by the addition of emtricitabine trimethyl lock compound 25 (concentration of compound 25 ranging from 600 μM to 6 mM). […] The supernatant was diluted into Tris buffer (30 mM, pH 7.4) to yield concentrations appropriate for analysis and read spectrophotometrically monitoring a decrease in substrate at 312 nm.

half-life at 1 mM [1] [days]	half-life at 1 mM [2] [min]	SMILES	hydrolysis rate in mouse liver S9 [3]	hydrolysis rate in mouse plasma [4]	toxicity on CD4+ T cells (viability staining) [5]	half-life [6] [min]	Intrinsic Clearance [7] [µL/h/mg]	Vmax [7] [nmol/h/mg]	Km ([7]; both sexes, human, pooled liver S9, pH 7.4, 100 μM to 8 mM, 312 nm) [mM]	half-life at 1 mM [8] [min]	half-life at 1 mM [9] [min]	Km ([10]; both sexes, pooled mouse liver S9, pH 7.4, 600 μM to 6 mM) [mM]	Intrinsic Clearance [10] [µL/h/mg]	Vmax [10] [nmol/h/mg]
3.96	348	CN(C)/C=N\c1nc(=O)n([C@@H]2CS[C@H](CO)O2)cc1F [Compound 23, (Z)—N′-(5-fluoro-1-((2R,5S)-2-(hydroxymethyl)-1,3-oxathiolan-5-yl)-2-oxo-1,2-dihydropyrimidin-4-yl)-N,N-dimethylformimidamide]												
		CCCCCCCCOC(=O)Nc1nc(=O)n([C@@H]2CS[C@H](CO)O2)cc1F [Compound 16, octyl (5-fluoro-1-((2R,5S)-2-(hydroxymethyl)-1,3-oxathiolan-5-yl)-2-oxo-1,2-dihydropyrimidin-4-yl)carbamate]	comparable in mouse and human liver S9	dramatically enhanced relative to human plasma	little to no toxicity	1080								
		CC(=O)Oc1cc(C)cc(C)c1C(C)(C)CC(=O)Nc1nc(=O)n([C@@H]2CS[C@H](CO)O2)cc1F [Compound 25, 2-(4-((5-fluoro-1-((2R,5S)-2-(hydroxymethyl)-1,3-oxathiolan-5-yl)-2-oxo-1,2-dihydropyrimidin-4-yl)amino)-2-methyl-4-oxobutan-2-yl)-3,5-dimethylphenyl acetate]			little to no toxicity	49.8	691	1659	2.4	24	60	1.6	8300	13200
